Data on 19 compounds can be found in patent publication US7507727B2, “Substituted quinobenzoxazine analogs and methods of using thereof” (Cylene Pharmaceuticals, Inc., priority 2003, dated 2009).

One test concerns HeLa cells. In words: MTS cell proliferation and/or cytotoxicity assay. It counts as cell-based, Human. The following applies: Homo sapiens, HeLa, 72 h, concentration at which 50% of antiproliferative cell response is seen; 3 days incubation; read-out: MTS Data Hella. Summed up: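 HeLa cells seeded at 4,500 cells/well, exposed to compounds from day 1 for 3 days at 37 °C, 5% CO2. Viability by MTS/PMS (20:1) with 4 h incubation, absorbance at 490 nm. Values are concentrations giving 50% antiproliferative response.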
`CN1CCCC1CCNC(=O)c1cn2c3c(c(N4CCC(N)C4)c(F)cc3c1=O)Oc1cc(-c3nc4ccccc4s3)ccc1-2` (centres unmarked) [compound 311]: the IC50 was found to be 2100 nM.

For `CC1CCCCN1CCCNC(=O)c1cn2c3c(c(N4CCC(N)C4)c(F)cc3c1=O)Oc1cc3ccccc3cc1-2` (centres unmarked) [compound 387], the IC50 is 330 nM.

Consider `CN1CCCC1CCNC(=O)c1cn2c3c(c(N4CC[C@@H](N)C4)c(F)cc3c1=O)Oc1ccccc1-2` (some centres unmarked) [compound 111], for which the IC50 is 220 nM.

As for `CC1(C)CC(NC(=O)c2cn3c4c(c(N5CC6CCCNC6C5)c(F)cc4c2=O)Oc2cc4ccccc4cc2-3)CC(C)(C)N1` (centres unmarked) [compound 487], the IC50 turned out to be 180 nM.

As to `CN1CCCC1CCNC(=O)c1cn2c3c(c(NCCCN4CCCC4=O)c(F)cc3c1=O)Oc1cc3ccccc3cc1-2` (centres unmarked) [compound 102], the IC50 came to 2200 nM.

As for `CN1CCCC1CCNC(=O)c1cn2c3cc4c(cc3oc3c(N5CC[C@H](N)C5)c(F)cc(c1=O)c32)c(=O)c1ccccc14` (some centres unmarked) [compound 582], the IC50 stood at 280 nM.

`CN1CCCC1CCNC(=O)c1cn2c3c(c(N4CCC(c5cnccn5)C4)c(F)cc3c1=O)Oc1cc3ccccc3cc1-2` (centres unmarked) [compound 516]: the IC50 amounted to 2300 nM.

As for `CN1CCN(CCCNC(=O)c2cn3c4c(c(NCCN5CCCC5)c(F)cc4c2=O)Oc2cc4c(cc2-3)oc2ccccc24)CC1` [compound 365], the IC50 is 3800 nM.

In the case of `CN1CCCC1CCNC(=O)c1cn2c3c(c(NCCCN4CCOCC4)c(F)cc3c1=O)Oc1cc3c(cc1-2)oc1ccccc13` (centres unmarked) [compound 362], the IC50 was determined as 4000 nM.

Consider `CN1CCN(CCCNc2c(F)cc3c(=O)c(C(=O)NCCCn4ccnc4)cn4c3c2Oc2cc3c(cc2-4)oc2ccccc23)CC1` [compound 481], for which the IC50 is 3600 nM.

Consider `CN(C)CCCCNc1c(F)cc2c(=O)c(C(=O)NCCC3CCCN3C)cn3c4cc5oc6cc([N+](=O)[O-])ccc6[nH]c5cc4oc1c23` (centres unmarked) [compound 569], for which the IC50 is 7800 nM.

Turning to `CN(C)CCCCNC(=O)c1cn2c3cc4oc5cc([N+](=O)[O-])ccc5[nH]c4cc3oc3c(NCCN4CCCC4)c(F)cc(c1=O)c32` [compound 359], the IC50 was found to be 4800 nM.

On to `CC(C)NCCCNC(=O)c1cn2c3c(c(N4CCC(N)C4)c(F)cc3c1=O)Oc1cc3ccccc3cc1-2` (centres unmarked) [compound 541], for which the IC50 is 270 nM.

For the compound `O=C(NCCN1CCCC1)c1cn2c3cc4c(cc3oc3c(NCCN5CCCC5)c(F)cc(c1=O)c32)c(=O)c1ccccc14` [compound 577], the IC50 is 1100 nM.

For the compound `CN1CCCC1CCNC(=O)c1cn2c3c(c(N4CC[C@@H](N)C4)c(F)cc3c1=O)Oc1c-2ccc2ccccc12` (some centres unmarked) [compound 110], the IC50 came to 250 nM.

`CN1CCCC1CCNC(=O)c1cn2c3c(c(N4CCC(N)C4)ccc3c1=O)Oc1cc3ccccc3cc1-2` (centres unmarked) [compound 529]: the IC50 was found to be 750 nM.

As for `NC(N)=NCCCCNC(=O)c1cn2c3c(c(N4CC[C@@H](N)C4)c(F)cc3c1=O)Oc1cc3ccccc3cc1-2` [compound 578], the IC50 stood at 580 nM.

Turning to `CCN(CC)CCCC(C)NC(=O)c1cn2c3c(c(N4CCC(c5cnccn5)C4)ccc3c1=O)Oc1cc3ccccc3cc1-2` (centres unmarked) [compound 309], the IC50 stood at 3000 nM.

Turning to `CN1CCN(CCCNc2c(F)cc3c(=O)c(C(=O)NCCC4CCCN4C)cn4c3c2Oc2cc3c(cc2-4)oc2ccccc23)CC1` (centres unmarked) [compound 363], the IC50 was determined as 3800 nM.

In another test the target is c-Myc template DNA (c-myc quadruplex). In words: Quadruplex binding / stop assay (Taq polymerase arrest, capillary electrophoresis). The conditions noted are these: read-out: Stop Data c-Myc μM; concentration at which 50% of the DNA was arrested (arrested:full-length 1:1).
Take `CN1CCCC1CCNC(=O)c1cn2c3c(c(N4CCC(N)C4)c(F)cc3c1=O)Oc1cc(-c3nc4ccccc4s3)ccc1-2` (centres unmarked) [compound 311]: the IC50 came to 1 µM.

As to `CC1CCCCN1CCCNC(=O)c1cn2c3c(c(N4CCC(N)C4)c(F)cc3c1=O)Oc1cc3ccccc3cc1-2` (centres unmarked) [compound 387], the IC50 was 0.75 µM.

Regarding `CN1CCCC1CCNC(=O)c1cn2c3c(c(N4CC[C@@H](N)C4)c(F)cc3c1=O)Oc1ccccc1-2` (some centres unmarked) [compound 111], the IC50 is 1.75 µM.

Consider `CC1(C)CC(NC(=O)c2cn3c4c(c(N5CC6CCCNC6C5)c(F)cc4c2=O)Oc2cc4ccccc4cc2-3)CC(C)(C)N1` (centres unmarked) [compound 487], for which the IC50 worked out at 0.5 µM.

Turning to `CN1CCCC1CCNC(=O)c1cn2c3c(c(NCCCN4CCCC4=O)c(F)cc3c1=O)Oc1cc3ccccc3cc1-2` (centres unmarked) [compound 102], the IC50 came out at 1.8 µM.

`CN1CCCC1CCNC(=O)c1cn2c3cc4c(cc3oc3c(N5CC[C@H](N)C5)c(F)cc(c1=O)c32)c(=O)c1ccccc14` (some centres unmarked) [compound 582]: the IC50 stood at 0.18 µM.

`CN1CCCC1CCNC(=O)c1cn2c3c(c(N4CCC(c5cnccn5)C4)c(F)cc3c1=O)Oc1cc3ccccc3cc1-2` (centres unmarked) [compound 516]: the IC50 turned out to be 0.375 µM.

In the case of `CN1CCN(CCCNC(=O)c2cn3c4c(c(NCCN5CCCC5)c(F)cc4c2=O)Oc2cc4c(cc2-3)oc2ccccc24)CC1` [compound 365], the IC50 came to 0.75 µM.

On to `CN1CCCC1CCNC(=O)c1cn2c3c(c(NCCCN4CCOCC4)c(F)cc3c1=O)Oc1cc3c(cc1-2)oc1ccccc13` (centres unmarked) [compound 362], for which the IC50 stood at 0.75 µM.

Take `CN1CCN(CCCNc2c(F)cc3c(=O)c(C(=O)NCCCn4ccnc4)cn4c3c2Oc2cc3c(cc2-4)oc2ccccc23)CC1` [compound 481]: the IC50 amounted to 0.5 µM.

In the case of `CN(C)CCCCNc1c(F)cc2c(=O)c(C(=O)NCCC3CCCN3C)cn3c4cc5oc6cc([N+](=O)[O-])ccc6[nH]c5cc4oc1c23` (centres unmarked) [compound 569], the IC50 stood at 0.18 µM.

`CN(C)CCCCNC(=O)c1cn2c3cc4oc5cc([N+](=O)[O-])ccc5[nH]c4cc3oc3c(NCCN4CCCC4)c(F)cc(c1=O)c32` [compound 359]: the IC50 turned out to be 0.75 µM.

With `CC(C)NCCCNC(=O)c1cn2c3c(c(N4CCC(N)C4)c(F)cc3c1=O)Oc1cc3ccccc3cc1-2` (centres unmarked) [compound 541], the IC50 came out at 0.375 µM.

For the compound `O=C(NCCN1CCCC1)c1cn2c3cc4c(cc3oc3c(NCCN5CCCC5)c(F)cc(c1=O)c32)c(=O)c1ccccc14` [compound 577], the IC50 was determined as 0.18 µM.

Regarding `CN1CCCC1CCNC(=O)c1cn2c3c(c(N4CC[C@@H](N)C4)c(F)cc3c1=O)Oc1c-2ccc2ccccc12` (some centres unmarked) [compound 110], the IC50 worked out at 1.75 µM.

For `CN1CCCC1CCNC(=O)c1cn2c3c(c(N4CCC(N)C4)ccc3c1=O)Oc1cc3ccccc3cc1-2` (centres unmarked) [compound 529], the IC50 turned out to be 0.375 µM.

As for `NC(N)=NCCCCNC(=O)c1cn2c3c(c(N4CC[C@@H](N)C4)c(F)cc3c1=O)Oc1cc3ccccc3cc1-2` [compound 578], the IC50 stood at 0.18 µM.

As for `CCN(CC)CCCC(C)NC(=O)c1cn2c3c(c(N4CCC(c5cnccn5)C4)ccc3c1=O)Oc1cc3ccccc3cc1-2` (centres unmarked) [compound 309], the IC50 is 1 µM.

On to `CN1CCN(CCCNc2c(F)cc3c(=O)c(C(=O)NCCC4CCCN4C)cn4c3c2Oc2cc3c(cc2-4)oc2ccccc23)CC1` (centres unmarked) [compound 363], for which the IC50 was 0.75 µM.
